Measurements from BindingDB's records for doi:10.1021/ja0277226 (Millennium Pharmaceuticals, 2002).

Key:
[1] = molecular target: Angiotensin-converting enzyme 2 (Homo sapiens, UniProt Q9BYF1); experiment: Enzyme Inhibition Assay; conditions: pH 6.5; 22 °C
Description: (§1) Enzyme assay was conducted in 384-well microplates format. Activity was monitored by measuring increase in fluorescence (excitation @320 nm, emission @405 nm) over a 60 minute time course using a BMG Polarstar Galaxy fluorescent plate reader. Compound IC50 values were determined using 10-pt concentration ranges. Rates of substrate hydrolysis were determined from time courses and converted to percent inhibition. Percent inhibition was plotted versus compound concentration and fit to the four parameter logistic equation by non-linear regression using Prism Graphpad software.

[2] = molecular target: T1, Angiotensin-converting enzyme (Sus scrofa, UniProt A1YQ85); experiment: Enzyme Inhibition Assay; conditions: pH 7.5; 22 °C
T1 sequence (A1YQ85 whole entry): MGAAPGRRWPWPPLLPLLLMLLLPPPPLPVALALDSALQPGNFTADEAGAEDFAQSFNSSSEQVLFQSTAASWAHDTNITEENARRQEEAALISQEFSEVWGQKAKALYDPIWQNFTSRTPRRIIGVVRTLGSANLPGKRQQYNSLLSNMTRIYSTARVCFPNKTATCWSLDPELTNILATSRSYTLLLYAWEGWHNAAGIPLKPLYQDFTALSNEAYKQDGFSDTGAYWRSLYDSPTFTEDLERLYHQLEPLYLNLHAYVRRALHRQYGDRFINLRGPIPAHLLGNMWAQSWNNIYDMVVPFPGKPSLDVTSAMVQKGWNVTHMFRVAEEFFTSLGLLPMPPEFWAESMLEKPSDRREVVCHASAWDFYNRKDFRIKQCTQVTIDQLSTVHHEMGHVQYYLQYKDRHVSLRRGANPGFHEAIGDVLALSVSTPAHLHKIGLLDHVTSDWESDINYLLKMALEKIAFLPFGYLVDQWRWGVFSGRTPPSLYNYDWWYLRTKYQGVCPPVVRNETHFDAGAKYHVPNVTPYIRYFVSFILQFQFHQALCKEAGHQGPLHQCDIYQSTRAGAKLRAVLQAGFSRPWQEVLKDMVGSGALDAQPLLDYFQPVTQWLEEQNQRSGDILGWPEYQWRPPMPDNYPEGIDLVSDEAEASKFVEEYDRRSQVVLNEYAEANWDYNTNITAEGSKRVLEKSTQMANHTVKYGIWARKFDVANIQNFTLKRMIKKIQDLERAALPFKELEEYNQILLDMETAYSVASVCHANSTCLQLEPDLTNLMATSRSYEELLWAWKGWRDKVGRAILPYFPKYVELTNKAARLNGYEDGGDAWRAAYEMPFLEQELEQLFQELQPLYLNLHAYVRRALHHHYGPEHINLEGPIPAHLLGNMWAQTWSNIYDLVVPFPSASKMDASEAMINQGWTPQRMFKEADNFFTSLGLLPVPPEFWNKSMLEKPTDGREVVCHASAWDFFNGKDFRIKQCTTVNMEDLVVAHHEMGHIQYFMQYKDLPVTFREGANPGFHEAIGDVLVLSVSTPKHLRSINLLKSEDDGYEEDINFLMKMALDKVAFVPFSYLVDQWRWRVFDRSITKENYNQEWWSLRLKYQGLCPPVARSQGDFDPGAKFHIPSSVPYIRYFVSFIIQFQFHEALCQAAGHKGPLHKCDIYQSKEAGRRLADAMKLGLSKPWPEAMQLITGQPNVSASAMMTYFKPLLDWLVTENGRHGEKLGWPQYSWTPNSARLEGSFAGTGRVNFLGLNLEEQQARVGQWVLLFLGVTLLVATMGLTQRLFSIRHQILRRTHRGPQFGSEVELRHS
Description: as §1

[3] = molecular target: T2, Carboxypeptidase A1 (Bos taurus, UniProt P00730); experiment: CPA Inhibition Assay; conditions: pH 7.5; 22 °C
T2 sequence (P00730 whole entry): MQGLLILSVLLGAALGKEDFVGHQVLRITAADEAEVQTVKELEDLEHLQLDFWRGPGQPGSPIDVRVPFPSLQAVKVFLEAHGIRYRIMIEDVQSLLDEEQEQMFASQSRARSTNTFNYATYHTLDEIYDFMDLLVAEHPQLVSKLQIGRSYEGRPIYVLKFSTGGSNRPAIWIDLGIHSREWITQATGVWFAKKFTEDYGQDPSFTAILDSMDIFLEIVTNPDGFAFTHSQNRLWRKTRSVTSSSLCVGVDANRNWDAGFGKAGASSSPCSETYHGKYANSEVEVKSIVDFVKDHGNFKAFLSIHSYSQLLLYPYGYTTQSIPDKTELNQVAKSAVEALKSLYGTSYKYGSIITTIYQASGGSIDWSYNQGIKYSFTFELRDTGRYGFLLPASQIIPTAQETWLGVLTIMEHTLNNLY
Description: as §1, with “Assay for the inhibition of carboxypeptidase A (CPDA)” for “Enzyme assay”, “96-well” for “384-well”, “decrease” for “increase”, “absorbance (328” for “fluorescence (excitation @320 nm, emission @405”, “15” for “60”, “Spectromax 250 absorbance” for “BMG Polarstar Galaxy fluorescent”

Chain of Angiotensin-converting enzyme 2 (Q9BYF1 whole entry): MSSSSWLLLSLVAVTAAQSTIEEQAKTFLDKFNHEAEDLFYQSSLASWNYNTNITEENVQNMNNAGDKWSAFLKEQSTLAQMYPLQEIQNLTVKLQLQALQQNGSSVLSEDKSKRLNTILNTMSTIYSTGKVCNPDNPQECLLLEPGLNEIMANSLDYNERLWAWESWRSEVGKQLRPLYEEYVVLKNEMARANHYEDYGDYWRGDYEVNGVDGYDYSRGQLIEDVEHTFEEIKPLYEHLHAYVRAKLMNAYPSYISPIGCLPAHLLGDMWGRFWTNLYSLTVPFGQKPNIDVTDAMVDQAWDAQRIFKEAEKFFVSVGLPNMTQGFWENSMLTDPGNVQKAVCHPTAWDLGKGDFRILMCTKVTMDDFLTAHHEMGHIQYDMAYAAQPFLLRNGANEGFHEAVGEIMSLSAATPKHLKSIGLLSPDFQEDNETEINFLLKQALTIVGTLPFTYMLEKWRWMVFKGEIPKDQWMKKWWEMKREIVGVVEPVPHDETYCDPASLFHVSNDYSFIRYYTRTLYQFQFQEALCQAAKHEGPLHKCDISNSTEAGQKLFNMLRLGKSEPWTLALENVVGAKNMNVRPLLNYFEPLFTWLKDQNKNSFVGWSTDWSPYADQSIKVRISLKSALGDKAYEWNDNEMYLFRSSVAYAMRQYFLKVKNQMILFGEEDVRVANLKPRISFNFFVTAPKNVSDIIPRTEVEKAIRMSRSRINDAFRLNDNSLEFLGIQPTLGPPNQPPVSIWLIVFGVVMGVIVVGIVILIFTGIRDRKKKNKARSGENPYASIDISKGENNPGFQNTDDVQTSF

SMILES	IC50 [1]	IC50 [2]	IC50 [3]
CC(C)C[C@H](N[C@@H](Cc1cncn1Cc1ccc(OC(F)(F)F)cc1)C(=O)O)C(=O)O [(2S)-2-{[(1S)-1-carboxy-2-(1-{[4-(trifluoromethoxy)phenyl]methyl}-1H-imidazol-5-yl)ethyl]amino}-4-methylpentanoic acid]	52 nM	–	–
CC(C)C[C@H](N[C@@H](Cc1cncn1C(C)(C)C1CCCCC1)C(=O)O)C(=O)O [(2S)-2-{[(1S)-1-carboxy-2-[1-(2-cyclohexylpropan-2-yl)-1H-imidazol-5-yl]ethyl]amino}-4-methylpentanoic acid]	10 nM	> 10000 nM	12000 nM
CC(C)C[C@H](N[C@@H](Cc1cncn1CC1CCCCC1)C(=O)O)C(=O)O [(2S)-2-{[(1S)-1-carboxy-2-[1-(cyclohexylmethyl)-1H-imidazol-5-yl]ethyl]amino}-4-methylpentanoic acid]	270 nM	–	–
Cc1ccccc1Cn1cncc1C[C@H](N[C@@H](CC(C)C)C(=O)O)C(=O)O [(2S)-2-{[(1S)-1-carboxy-2-{1-[(2-methylphenyl)methyl]-1H-imidazol-5-yl}ethyl]amino}-4-methylpentanoic acid]	290 nM	–	–
Cc1ccc(Cn2cncc2C[C@H](N[C@@H](CC(C)C)C(=O)O)C(=O)O)cc1C [(2S)-2-{[(1S)-1-carboxy-2-{1-[(3,4-dimethylphenyl)methyl]-1H-imidazol-5-yl}ethyl]amino}-4-methylpentanoic acid]	10 nM	> 10000 nM	> 10000 nM
Cc1cc(C)cc(Cn2cncc2C[C@H](N[C@@H](CC(C)C)C(=O)O)C(=O)O)c1 [(2S)-2-{[(1S)-1-carboxy-2-{1-[(3,5-dimethylphenyl)methyl]-1H-imidazol-5-yl}ethyl]amino}-4-methylpentanoic acid]	1.4 nM	> 10000 nM	> 10000 nM
Cc1cccc(Cn2cncc2C[C@H](N[C@@H](CC(C)C)C(=O)O)C(=O)O)c1 [(2S)-2-{[(1S)-1-carboxy-2-{1-[(3-methylphenyl)methyl]-1H-imidazol-5-yl}ethyl]amino}-4-methylpentanoic acid]	4.2 nM	> 10000 nM	> 10000 nM
CC(C)C[C@H](N[C@@H](Cc1cncn1Cc1ccc(Cl)cc1)C(=O)O)C(=O)O [(2S)-2-{[(1S)-1-carboxy-2-{1-[(4-chlorophenyl)methyl]-1H-imidazol-5-yl}ethyl]amino}-4-methylpentanoic acid]	21 nM	–	> 10000 nM
Cc1ccc(Cn2cncc2C[C@H](N[C@@H](CC(C)C)C(=O)O)C(=O)O)cc1 [(2S)-2-{[(1S)-1-carboxy-2-{1-[(4-methylphenyl)methyl]-1H-imidazol-5-yl}ethyl]amino}-4-methylpentanoic acid]	32 nM	> 10000 nM	> 10000 nM
CC(C)C[C@H](N[C@@H](Cc1cncn1Cc1ccc([N+](=O)[O-])cc1)C(=O)O)C(=O)O [(2S)-2-{[(1S)-1-carboxy-2-{1-[(4-nitrophenyl)methyl]-1H-imidazol-5-yl}ethyl]amino}-4-methylpentanoic acid]	76 nM	–	–
O=C(O)[C@H](Cc1ccccc1)N[C@@H](Cc1cncn1Cc1ccccc1)C(=O)O [(2S)-2-{[(1S)-2-(1-benzyl-1H-imidazol-5-yl)-1-carboxyethyl]amino}-3-phenylpropanoic acid]	340 nM	–	–
CC[C@H](N[C@@H](Cc1cncn1Cc1ccccc1)C(=O)O)C(=O)O [(2S)-2-{[(1S)-2-(1-benzyl-1H-imidazol-5-yl)-1-carboxyethyl]amino}butanoic acid]	300 nM	–	2800 nM
CC(C)C[C@H](N[C@@H](Cc1cncn1Cc1cc(Cl)cc(Cl)c1)C(=O)O)C(=O)O [MLN4760]	0.44 nM	> 100000 nM	27000 nM
